Assay results: paper PMC7956620 (Molecules, 2021)
Positions count from the first letter of the chain named.

Assays:
[1] = target: T1, 5-HT3A receptor F130A mutant (Homo sapiens, UniProt P46098, F125A); test: two-electrode voltage clamp, F130A mutant receptor in Xenopus oocytes; format: cell-based; conditions: 100 µM chanoclavine, read-out: Inhibition Percentage (%)
T1 construct: host or cells: Xenopus laevis oocytes injected with in vitro transcribed mRNA
T1 sequence (P46098 24-478 F125A): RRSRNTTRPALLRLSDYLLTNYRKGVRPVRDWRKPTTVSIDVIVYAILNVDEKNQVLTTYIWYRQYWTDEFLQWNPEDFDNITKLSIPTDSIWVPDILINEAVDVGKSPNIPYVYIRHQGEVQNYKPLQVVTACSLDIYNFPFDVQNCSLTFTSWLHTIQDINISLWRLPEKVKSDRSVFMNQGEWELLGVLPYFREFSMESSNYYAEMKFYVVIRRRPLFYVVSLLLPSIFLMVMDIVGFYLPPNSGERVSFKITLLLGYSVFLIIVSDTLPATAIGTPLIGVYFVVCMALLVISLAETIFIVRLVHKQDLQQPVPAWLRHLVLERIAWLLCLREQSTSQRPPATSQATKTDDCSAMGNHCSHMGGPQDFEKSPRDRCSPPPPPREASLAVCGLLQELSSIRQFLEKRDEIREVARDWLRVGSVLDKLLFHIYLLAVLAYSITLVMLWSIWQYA
Procedure: (§1) The site-directed mutation of one or two amino acids was performed using sense and antisense primers and Pfu polymerase (QuickChange Site-Directed Mutagenesis Kit; Agilent, Santa Clara, CA, USA) and amplified by polymerase chain reaction (PCR) to increase the target domain. After removing the existing methylated cDNA using Dpn Ⅰ, the PCR products were transformed into Escherichia coli strain DH5α. The cDNA of the 5-HT3A receptor was linearized by Xho Ⅰ at the end of the multi-cloning site, followed by transcription using T7 polymerase and a transcription kit (mMESSAGE mMACHINE T7 Transcription Kit; Thermo Fisher Scientific, Waltham, MA, USA). […]
(§2) To isolate oocytes, female Xenopus laevis were put into a container filled with ice and left for about one hour. […] When the Xenopus oocytes were ready for injection, 50 ng of mRNA was injected with a nanoliter injector (Drummond Scientific, Vernon Hills, IL, USA). […]
(§3) The oocytes in which mRNA was expressed during the incubation period allowed for the estimation of channel or receptor properties for observing drug and ligand potential interactions using a two-electrode voltage clamp (OC-725C; Warner Instruments, Hamden, CT, USA) and Digidata (1322A; Molecular Devices, Sunnyvale, CA, USA). […] The voltage and current electrodes were filled with 3 M KCl (0.3–0.7 MΩ) and analyzed at a −80 mV holding potential. […]

[2] = target: T2, 5-HT3A receptor S136A mutant (Homo sapiens, UniProt P46098, S131A); test: two-electrode voltage clamp, S136A mutant receptor in Xenopus oocytes; format: cell-based; conditions: 100 µM chanoclavine, read-out: Inhibition Percentage (%)
T2 construct: host or cells: Xenopus laevis oocytes injected with in vitro transcribed mRNA
T2 sequence (P46098 24-478 S131A): T1 sequence (P46098 24-478 F125A) with A102F, S108A
Procedure: as §1, §2, §3

[3] = test system: 5-HT3A receptor I228A mutant; test: two-electrode voltage clamp, I228A mutant receptor in Xenopus oocytes; format: cell-based, human; conditions: 100 µM chanoclavine
Procedure: as §1, §2, §3

[4] = target: T3, 5-HT3A receptor F130A+N138A double mutant (Homo sapiens, UniProt P46098, F125A/N133A); test: two-electrode voltage clamp, F130A+N138A double mutant receptor in Xenopus oocytes; format: cell-based; conditions: 300 µM chanoclavine with 5-HT
T3 construct: host or cells: Xenopus laevis oocytes injected with in vitro transcribed mRNA
T3 sequence (P46098 24-478 F125A/N133A): T1 sequence (P46098 24-478 F125A) with N110A
Procedure: as §1, §2, §3

mice = test system: mice; set-up: method as in PMID 31052510; conditions: mice ref 32; cited from earlier work

For `CN[C@@H]1Cc2c[nH]c3cccc(c23)[C@H]1/C=C(\C)CO` [chanoclavine], the inhibition at 100 µM [1] was 9.36 ± 4.3%, the inhibition at 100 µM [2] was 68.4 ± 6.1% and the “Inhibition Percentage (%)” value [3] was 66.16 ± 9.2%. For the same molecule, the “effect on inward current” value [4] was “not significantly decreased” and the “toxicity (gross hematology, blood chemistry, pathology, histology)” value (mice) was “low toxicity”.
